Experimental data reported in ChEMBL document CHEMBL1914367, “Formation, recognition and bioactivities of a novel G-quadruplex in the STAT3 gene” (Bioorg Med Chem Lett, 2011).
Activity calls are given as the source filed them. The rule behind the calls is not given here.

Columns and labels:
Nucleic Acid [1] = test: Binding affinity to STAT3 G-quadruplex in 3'-flanking region 5'-GGGCTGGGGATGGGGAGGGGG-3' assessed as intensity ratio of all complex ions to the sum of all G-quadruplex and complex ions at 20 uM by ESI mass spectroscopy relative to control; assay type: nucleic-acid assay
HEK293 [2] = test: Down regulation of human STAT3 gene expression in human HEK293 cells cloned with MutQ vector harboring G-quadruplex GGG to GTG substitution mutation at 2 to 10 uM after 24 hrs by luciferase reporter gene assay; assay type: functional, cell-based
Nucleic Acid [3] = test: Binding affinity to STAT3 G-quadruplex in rat cardiomyocytes assessed as down regulation of STAT3 protein expression at 10 uM after 48 hrs by Western blot analysis; assay type: cell-based
Nucleic Acid [4] = test: Down regulation of human STAT3 gene expression in human HEK293 cells cloned with FRQ vector harboring intact G-quadruplex at 2 to 10 uM after 24 hrs by luciferase reporter gene assay; assay type: cell-based
HEK293 [5] = test: Down regulation of human STAT3 gene expression in human HEK293 cells cloned with DelQ vector harboring G-quadruplex G-rich sequence deletion at 2 to 10 uM after 24 hrs by luciferase reporter gene assay; assay type: functional, cell-based
Nucleic Acid [6] = test: Binding affinity to STAT3 G-quadruplex in rat cardiomyocytes assessed as down regulation of STAT3 gene expression at 10 uM after 48 hrs by RT-PCR analysis; assay type: cell-based
Nucleic Acid [7] = test: Binding affinity to G-telomeric quadruplex 5'-GGGTTAGGGTTAGGGTTAGGG-3' assessed as the intensity ratio of all complex ions to the sum of all G-quadruplex and complex ions at 20 uM by ESI mass spectroscopy relative to control; assay type: nucleic-acid assay
Nucleic Acid [8] = test: Binding affinity to STAT3 G-quadruplex in 3'-flanking region 5'-GGGCTGGGGATGGGGAGGGGG-3' assessed as melting temperature at 20 uM by UV-Vis spectrophotometry (reference value: 58 degC); assay type: nucleic-acid assay
Nucleic Acid [9] = test: Binding affinity to STAT3 G-quadruplex in 3'-flanking region 5'-GGGCTGGGGATGGGGAGGGGG-3' assessed as melting temperature at 40 uM by UV-Vis spectrophotometry (reference value: 58 degC); assay type: nucleic-acid assay
Nucleic Acid [10] = test: Binding affinity to STAT3 G-quadruplex in 3'-flanking region 5'-GGGCTGGGGATGGGGAGGGGG-3' assessed as melting temperature at 10 uM by UV-Vis spectrophotometry (reference value: 58 degC); assay type: nucleic-acid assay
Nucleic Acid [11] = test: Binding affinity to human VEGF G-quadruplex 5'-GGGGCGGGCCGGGGGCGGGG-3' assessed as the intensity ratio of all complex ions to the sum of all G-quadruplex and complex ions at 20 uM by ESI mass spectroscopy relative to control; assay type: nucleic-acid assay

Row | SMILES | Ratio (Nucleic Acid [1]) | inhibition (HEK293 [2]) | Activity (Nucleic Acid [3]) | inhibition (Nucleic Acid [4]) | inhibition (HEK293 [5]) | Activity (Nucleic Acid [6]) | Ratio (Nucleic Acid [7]) | Tm (Nucleic Acid [8]) [°C] | Tm (Nucleic Acid [9]) [°C] | Tm (Nucleic Acid [10]) [°C] | Ratio (Nucleic Acid [11])
1 | COc1cc2c(cc1OC)-c1c(C)c3ccc(OC)c(OC)c3c[n+]1CC2 | 0.34 |  |  |  |  |  |  |  |  |  | 
2 | C[n+]1ccc(-c2c3nc(c(-c4cc[n+](C)cc4)c4ccc([nH]4)c(-c4cc[n+](C)cc4)c4ccc([nH]4)c(-c4cc[n+](C)cc4)c4nc2C=C4)C=C3)cc1 | 0.53 | inactive | Active | Active | inactive | Active |  |  |  |  | 
3 | COc1ccc2cc1Oc1ccc(cc1)C[C@H]1c3c(cc4c(c3Oc3cc5c(cc3OC)CCN(C)[C@@H]5C2)OCO4)CCN1C | 0.81 | inactive | Active | Active | inactive | Active | 0.47 | 62 | 65 | 59 | 0.26
